In patent publication US7018981B2, “Cyclic motilin receptor antagonists” (Chugai Seiyaku Kabushiki Kaisha, priority 2000, dated 2006):
Where two headings read alike, the source gives them in different places. Where a SMILES comes first, the peptide text is derived from it. Bridges are numbered along the chain shown (N, C = ends). [ ]: non-standard residue; d: D form. Tyr(3-tBu) = CC(C)(C)c1cc(C[C@H](N)C(=O)O)ccc1O; Phe(4-F) = N[C@@H](Cc1ccc(F)cc1)C(=O)O; NMeK = CN[C@@H](CCCCN)C(=O)O; βAla = NCCC(=O)O

Key:
[1] = amide bond, BOP, 25.0 °C
[2] = amide bond, 25.0 °C
[3] = target: T1, motilin receptors (Oryctolagus cuniculus, UniProt G1T803); assay: Motilin receptor binding test (125I motilin, rabbit duodenum protein solution); settings: concentration inhibiting 50% of specific binding of 25 pM 125I motilin; rabbit duodenum homogenate, 2 hours at 25° C.
T1 construct: A protein solution was prepared by homogenizing the duodenum isolated from a killed rabbit; from tissue; host or cells: rabbit duodenum, mucosa stripped, homogenate
T1 sequence (G1T803 1-400): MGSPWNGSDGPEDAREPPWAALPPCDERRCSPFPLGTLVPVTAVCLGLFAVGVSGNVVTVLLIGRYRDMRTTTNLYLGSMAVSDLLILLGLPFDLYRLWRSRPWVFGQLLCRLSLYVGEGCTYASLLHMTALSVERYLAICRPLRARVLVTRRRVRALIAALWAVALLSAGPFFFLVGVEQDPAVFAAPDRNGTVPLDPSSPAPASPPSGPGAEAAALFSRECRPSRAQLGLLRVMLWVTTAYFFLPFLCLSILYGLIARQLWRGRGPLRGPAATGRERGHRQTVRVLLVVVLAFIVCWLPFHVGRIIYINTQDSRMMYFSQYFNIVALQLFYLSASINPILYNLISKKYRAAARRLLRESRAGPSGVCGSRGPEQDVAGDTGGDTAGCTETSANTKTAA
Experimental: Motilin receptor binding activities of compounds of the present invention were tested as follows [Vantrappen et al., Regul.
A protein solution was prepared by homogenizing the duodenum isolated from a killed rabbit in 50 mM Tris after stripping the mucosa. […] The difference between the radioactivity of the protein solution incubated alone and the radioactivity of the protein solution incubated with a large excess of motilin (10^−7 M) was recorded as specific binding of motilin to motilin receptors.

[4] = tested on: motilin-induced contraction of a sample of the longitudinal muscle of the duodenum; assay: Contraction inhibition test: motilin-induced contraction of rabbit longitudinal duodenal muscle; assay type: cell-based; settings: Oryctolagus cuniculus; concentration-dependent contraction induced by motilin; rabbit duodenal specimen in Krebs solution at 28° C.; read-out: Contraction inhibition test pA2 (converted)
Experimental: The effect of compounds of the present invention on motilin-induced contraction of a sample of the longitudinal muscle of the duodenum extracted from a rabbit was tested as follows.
A duodenal specimen (5×15 mm) extracted from a killed rabbit was suspended in the direction of the longitudinal muscle in an incubator at 28° C. filled with Krebs solution (10 ml organ bath). A mixed gas (95% O2, 5% CO2) was continuously passed through the Krebs solution and the contraction of the duodenal specimen was isotonically recorded (under a load of 1 g) via an isotonic transducer (ME-3407, ME Commercial, Tokyo, Japan). The extent of contraction of the duodenal specimen was expressed as a percentage to the contraction induced by acetylcholine at a concentration of 10^−4 M.
The effect of the compounds synthesized in Examples 1–8 and 10 on the concentration-dependent contraction induced by motilin added into the incubator was determined to calculate pA2 (see “Drug receptors” edited by Takayanagi, published by Nanzando). As a comparative example, the results of the compound of formula (5) are also shown.

[5] = 14-membered ring, BOP, DMF/pyridine 1:1, 9.9 mM, 2 steps

CC(=O)N1CCCC[C@H](N(C)C(=O)[C@H](Cc2ccc(F)cc2)NC(=O)OC(C)(C)C)C(=O)N[C@@H](Cc2ccc(O)c(C(C)(C)C)c2)C(=O)NCCC1
ring closure, yield of all isomers ([1]; from CC(=O)N(CCCN)CCCC[C@@H](C(=O)N[C@@H](Cc1ccc(O)c(C(C)(C)C)c1)C(=O)O)N(C)C(=O)[C@H](Cc1ccc(F)cc1)NC(=O)OC(C)(C)C, DMF, 9.87 mM, 18.0 h): 55%

(2S-(2S,12S))-2-tert-butoxycarbonylamino-N-(2-(3-tert-butyl-4-hydroxyphenylmethyl)-1,4,8-triaza-3,7,13-trioxocyclotridec-12-yl)-3-(4-fluorophenyl)-N-methylpropionamide
ring closure, isolated yield ([2]; 13-membered ring, BOP/pyridine, DMF/pyridine 1:1, 10.75 mM, 2 steps): 60%

(2S-(2S,14S))-2-(tert-butoxycarbonylamino)-N-(2-(3-tert-butyl-4-hydroxyphenylmethyl)-1,4,9-triaza-3,8,15-trioxocyclopentadec-14-yl)-3-(4-fluorophenyl)-N-methylpropionamide
ring closure, isolated yield ([2]; 15-membered ring, BOP/pyridine, DMF/pyridine 1:1, 10.1 mM): 82%

CN1CCC[C@H](N(C)C(=O)[C@@H](N)Cc2ccc(F)cc2)C(=O)N[C@@H](Cc2ccc(O)c(C(C)(C)C)c2)C(=O)NCCCC1=O [Example 9, (2S-(2S,13S))-2-amino-N-(2-(3-tert-butyl-4-hydroxyphenylmethyl)-9,N-dimethyl-1,4,9-triaza-3,8,14-trioxocyclotetradec-13-yl)-3-(4-fluorophenyl)propionamide]
IC50 [3]: 5.3 nM

CN(C(=O)[C@@H](N)Cc1ccc(F)cc1)[C@H]1CCCCNC(=O)CCNC(=O)[C@H](Cc2ccc(O)c(C(C)(C)C)c2)NC1=O [Example 1, (2S-(2S,13S))-2-amino-N-(2-(3-tert-butyl-4-hydroxyphenylmethyl)-1,4,8-triaza-3,7,14-trioxocyclotetradec-13-yl)-3-(4-fluorophenyl)-N-methylpropionamide] (H-[Phe(4-F)][NMeK][Tyr(3-tBu)][βAla]; lactam 2-C)
Kb [4]: 1 nM | IC50 [3]: 1.2 nM

CN1CCC(=O)NCCCC[C@H](N(C)C(=O)[C@H](Cc2ccc(F)cc2)NC(=O)OC(C)(C)C)C(=O)N[C@@H](Cc2ccc(O)c(C(C)(C)C)c2)C1=O
ring closure, yield of all isomers ([1]; from CN(CCC(=O)O)C(=O)[C@H](Cc1ccc(O)c(C(C)(C)C)c1)NC(=O)[C@H](CCCCN)N(C)C(=O)[C@H](Cc1ccc(F)cc1)NC(=O)OC(C)(C)C, DMF, 10.3 mM, 16.0 h): 60%

(2S-(2S,13S))-2-tert-butoxycarbonylamino-N-(2-(3-tert-butyl-4-hydroxyphenylmethyl)-1-methyl-1,4,8-triaza-3,7,14-trioxocyclotetradec-13-yl)-3-(4-fluorophenyl)-N-methylpropionamide
ring closure, isolated yield ([2]; 14-membered ring, BOP/pyridine, DMF/pyridine 1:1, 10.0 mM, 2 steps): 36%

CC(C)(C)c1cc(C[C@@H]2NC(=O)C(N)CCCCNC(=O)CCNC2=O)ccc1O (stereo partly drawn)
ring closure, isolated yield ([2]; from Z-Lys-Tyr(3-tBu)-bAla-OH?, 14-membered ring, BOP/pyridine, MeCN/pyridine 1:1, 10.2 mM, 3 steps): 90%

CN(C(=O)[C@H](Cc1ccccc1)NC(=O)OCc1ccccc1)[C@H]1CCCCNC(=O)CCNC(=O)[C@H](Cc2ccc(O)c(C(C)(C)C)c2)NC1=O
ring closure, yield of all isomers ([1]; from CN(C(=O)[C@H](Cc1ccccc1)NC(=O)OCc1ccccc1)[C@@H](CCCCN)C(=O)N[C@@H](Cc1ccc(O)c(C(C)(C)C)c1)C(=O)NCCC(=O)O, DMF, 9.91 mM, 2 steps): 48%

CN(C(=O)[C@H](Cc1ccc(F)cc1)NC(=O)OC(C)(C)C)[C@H]1CCCCNC(=O)CCCNC(=O)[C@H](Cc2ccc(O)c(C(C)(C)C)c2)NC1=O
ring closure, yield of all isomers ([1]; from CN(C(=O)[C@H](Cc1ccc(F)cc1)NC(=O)OC(C)(C)C)[C@@H](CCCCN)C(=O)N[C@@H](Cc1ccc(O)c(C(C)(C)C)c1)C(=O)NCCCC(=O)O, DMF, 10.1 mM, 16.0 h): 82%

(2S-(2S,13S))-2-tert-butoxycarbonylamino-N-(2-(3-tert-butyl-4-hydroxyphenylmethyl)-9-methyl-1,4,9-triaza-3,8,14-trioxocyclotetradec-13-yl)-3-(4-fluorophenyl)-N-methylpropionamide
ring closure, isolated yield [2, 5]: 60%

2S-(2S,13S))-N-(8-acetyl-2-(3-tert-butyl-4-hydroxyphenylmethyl)-3,14-dioxo-1,4,8-triazacyclotetradec-13-yl)-2-tert-butoxycarbonylamino-3-(4-fluorophenyl)-N-methylpropionamide
ring closure, isolated yield ([2]; 14-membered ring, BOP/pyridine, DMF/pyridine 1:1, 9.9 mM): 55%

CN(C(=O)[C@H](Cc1ccc(F)cc1)NC(=O)OC(C)(C)C)[C@H]1CCCCNC(=O)CCNC(=O)[C@H](Cc2ccc(O)c(C(C)(C)C)c2)N(C)C1=O
ring closure, yield of all isomers ([1]; from CN(C(=O)[C@H](Cc1ccc(F)cc1)NC(=O)OC(C)(C)C)[C@@H](CCCCN)C(=O)N(C)[C@@H](Cc1ccc(O)c(C(C)(C)C)c1)C(=O)NCCC(=O)O, DMF, 10.0 mM, 26.0 h, 2 steps): 36%

CC(C)(C)c1cc(C[C@@H]2NC(=O)[C@@H](N)CCCCNC(=O)CCNC2=O)ccc1O
ring closure, yield of all isomers ([1]; from CC(C)(C)OC(=O)CCNC(=O)[C@H](Cc1ccc(O)c(C(C)(C)C)c1)NC(=O)[C@H](CCCCNC(=O)OC(C)(C)C)NC(=O)OCc1ccccc1, acetonitrile, 10.2 mM, 21.0 h, 3 steps): 90%

(2S-(2S,13S))-2-tert-butoxycarbonylamino-N-(2-(3-tert-butyl-4-hydroxyphenylmethyl)-4-methyl-1,4,8-triaza-3,7,14-trioxocyclotetradec-13-yl)-3-(4-fluorophenyl)-N-methylpropionamide
ring closure, isolated yield ([2]; 14-membered ring, BOP/pyridine, DMF/pyridine 1:1, 10.3 mM): 60%

(2S-(2S,13S))-N-(8-acetyl-2-(3-tert-butyl-4-hydroxyphenylmethyl)-3,14-dioxo-1,4,8-triazacyclotetradec-13-yl)-2-tert-butoxycarbonylamino-3-(4-fluorophenyl)-N-methylpropionamide
ring closure, isolated yield ([2]; 14-membered ring, BOP, DMF/pyridine 1:1, 9.9 mM): 55%

CN(C(=O)[C@H](Cc1ccc(F)cc1)NC(=O)OC(C)(C)C)[C@H]1CCCCNC(=O)CNC(=O)[C@H](Cc2ccc(O)c(C(C)(C)C)c2)NC1=O
ring closure, yield of all isomers ([1]; from CN(C(=O)[C@H](Cc1ccc(F)cc1)NC(=O)OC(C)(C)C)[C@@H](CCCCN)C(=O)N[C@@H](Cc1ccc(O)c(C(C)(C)C)c1)C(=O)NCC(=O)O, DMF, 10.75 mM, 23.0 h, 2 steps): 60%

CN1CCCC[C@H](N(C)C(=O)[C@H](Cc2ccc(F)cc2)NC(=O)OC(C)(C)C)C(=O)N[C@@H](Cc2ccc(O)c(C(C)(C)C)c2)C(=O)NCCC1=O
ring closure, yield of all isomers ([1]; from CNCCCC[C@@H](C(=O)N[C@@H](Cc1ccc(O)c(C(C)(C)C)c1)C(=O)NCCC(=O)O)N(C)C(=O)[C@H](Cc1ccc(F)cc1)NC(=O)OC(C)(C)C, DMF, 10.5 mM, 16.0 h): 36%

(2S-(2S,13S))-2-(tert-butoxycarbonylamino)-N-(2-(3-tert-butyl-4-hydroxyphenylmethyl)-8-methyl-1,4, 8-triaza-3,7,14-trioxocyclotetradec-13-yl)-3-(4-fluorophenyl)-N-methylpropionamide
ring closure, isolated yield ([2]; 14-membered ring, BOP/pyridine, DMF/pyridine 1:1, 10.5 mM): 36%

CN1CCC[C@H](N(C)C(=O)[C@H](Cc2ccc(F)cc2)NC(=O)OC(C)(C)C)C(=O)N[C@@H](Cc2ccc(O)c(C(C)(C)C)c2)C(=O)NCCCC1=O
ring closure, yield of all isomers ([1]; from CNCCC[C@@H](C(=O)N[C@@H](Cc1ccc(O)c(C(C)(C)C)c1)C(=O)NCCCC(=O)O)N(C)C(=O)[C@H](Cc1ccc(F)cc1)NC(=O)OC(C)(C)C, DMF, 9.93 mM, 12.0 h, 2 steps): 60%

(2S-(2S,13S))-2-benzyloxycarbonylamino-N-(2-(3-tert-butyl-4-hydroxyphenylmethyl)-1,4,8-triaza-3,7,14-trioxocyclotetradec-13-yl)-3-phenyl-N-methylpropionamide
ring closure, isolated yield [2, 5]: 48%

CN(C(=O)[C@H](Cc1ccc(F)cc1)NC(=O)OC(C)(C)C)[C@H]1CCCCNC(=O)CCNC(=O)[C@H](Cc2ccc(O)c(C(C)(C)C)c2)NC1=O
ring closure, yield of all isomers ([1]; from CN(C(=O)[C@H](Cc1ccc(F)cc1)NC(=O)OC(C)(C)C)[C@@H](CCCCN)C(=O)N[C@@H](Cc1ccc(O)c(C(C)(C)C)c1)C(=O)NCCC(=O)O, DMF, 10.1 mM, 18.0 h): 69%

(2S-(2S,13S))-2-tert-butoxycarbonylamino-N-(2-(3-tert-butyl-4-hydroxyphenylmethyl)-1,4,8-triaza-3,7,14-trioxocyclotetradec-13-yl)-3-(4-fluorophenyl)-N-methylpropionamide
ring closure, isolated yield ([2]; 14-membered ring, BOP/pyridine, DMF/pyridine 1:1, 10.1 mM): 69%
